Source: patent US10391168B1, “Anti-CD70 combination therapy” (University of Bern, priority 2014, dated 2019)
Each block holds one molecule with its values, some of them ahead of it.

Key:
[1] = test system: colon carcinoma cells; conditions: cited from earlier work
[2] = test system: conditional APC mutant mice; conditions: mouse, in vivo; cited from earlier work
[3] = test system: Xenopus embryos; conditions: in vivo; cited from earlier work
[4] = test system: β-catenin; conditions: cited from earlier work
[5] = test system: DLD-1-cancer cells; conditions: colorectal adenocarcinoma derived; cited from earlier work
[6] = test system: human CD34+ CML stem/progenitor cells; experiment: Expression in human CML cells ex vivo from xenografted NSG mice; conditions: imatinib 50 mg/kg daily, 2 weeks
Text: (g-l) CD70 (g), SP1 (h), DNMT1 mRNA (i), and miR-29 expression (j-l) (qRT-PCR) in CD34^+ cells. (n-m) Correlation of CD70 expression with the expression of selected Wnt target genes RUNX1 (m) and WISP1 (n) in CD34^+ stem/progenitor cells from newly diagnosed chronic phase CML patients. Expression data are derived from a public repository for microarray data and are available under accession number E-MEXP-480 (EMBL EBI Arrayexpress). […] Statistics: (c-e), one-way ANOVA; (f-l), Student's t test; (m) and (n), Spearman correlation.
(p-r) CD70 and CD27 expression were determined on primary human CML cells. […] After 2 weeks of treatment, mice were euthanized and CML cells were analyzed for the expression of CD70 and CD27 by FACS. […] (p-q) red lines, CD70 and CD27 antibodies; blue lines, respective isotype controls.

[7] = test system: SD-1 cells; experiment: Chou-Talalay drug combination study, growth inhibition of SD-1 cells (cell numbers after 72 h)
[8] = test system: CD34+ stem/progenitor cells from healthy donors; experiment: Growth and colony formation of CD34+ stem/progenitor cells from BM of healthy donors; assay type: cell-based, human; conditions: anti-CD70 mAb 10 μg/ml, imatinib 1 μM, alone or combined; 7 or 14 days
[9] = in vivo; conditions: NSG, mouse, plasma, oral, 50 mg/kg
[10] = test system: CD34+ stem/progenitor cells from newly diagnosed CML patients; experiment: Expression in FACS-sorted CD34+ CML stem/progenitor cells cultured ex vivo; conditions: imatinib 1 μM, 7 days
[11] = test system: human CD34+ CML stem/progenitor cells; experiment: Liquid culture of primary human CD34+ CML stem/progenitor cells: cell numbers, BrdU, viability; assay type: cell-based; conditions: 7 days; anti-CD70 mAb 10 μg/ml, imatinib 1 μM, alone or combined
[12] = test system: KBM5r cells; experiment: miR-29 expression and anti-miR silencing in KBM5r cells (qRT-PCR); assay type: cell-based, human; conditions: imatinib 1 μM, nilotinib 1 μM, ponatinib 0.1 μM; 72 h
[13] = test system: human CD34+ CML stem/progenitor cells; experiment: Murine xenograft CML model: human CML cells in BM of NSG mice; assay type: in vivo
[14] = test system: imatinib-resistant KBM5r cells (BCR-ABL1 T315I); experiment: CD70, SP1, DNMT1 expression and viability in imatinib-resistant KBM5r cells; assay type: cell-based, human
Method: Specifically, 5×10^4 KBM5r cells were transduced overnight at 37° C. and 5% CO2 with 2×10^5 infectious units of shSP1 or the respective control lentiviral particles having scrambled RNA (Santa Cruz Biotechnology Inc.) in the presence of 5 μg/ml polybrene (Sigma-Aldrich) according to the manufacturer's instructions. After 18 hours, medium was removed, and cells were cultured in medium supplemented with 1 μg/ml puromycin to select for stable expression of shSP1 or scrambled RNA.
KBM5r cells (1×10^5) stably transduced with shSP1 (shSP1), or the respective control scrambled RNA lentiviral particles (scr), were then cultured for 72 hours in the presence of vehicle or ponatinib (po; 0.1 μM). Treated cells were tested for MFI of CD70 protein expression (FACS) (FIG. 1, q), CD70 (FIG. 1, r) and SP1 (Figure, 1 s) mRNA expression (qRT-PCR).
In a first experiment, 1×10^5 KBM5r cells were cultured in the presence of vehicle, ponatinib (po, 0.1 μM), lithium chloride (li, […]), or both in combination (po/li) for 24 h (FIG. 2, A-C). In a second experiment, 1×10^5 KBM5r cells were cultured in the presence of vehicle, ponatinib (po, 0.1 μM), R-Spondin 1 (R, 10 ng/ml), or both in combination (po/R) for 72 h (FIG. 2, D-E).

[15] = test system: CD70 promoter in KBM5r cells; experiment: DNA methylation analysis of the CD70 promoter by bisulfite sequencing; assay type: cell-based, human; conditions: ponatinib 0.1 μM or azacytidine 1 μM, vs vehicle
Method: The methylation profile of the SP1 transcription factor binding sites within the KBM5r cell CD70 promoter was analyzed by bisulfite sequencing after treatment of KBM5r cells with either a control, ponatinib (0.1 μM) or azacytidine (1 μM).
Bisulfite conversion of the isolated DNA samples from both KBM5 and KBM5r cells were assessed using the Epitect® Bisulfite Kit (Qiagen) according to the manufacturer's protocol. The promoter region covering binding sites for important transcription factors were selectively amplified using the following primers: forward primer (−227˜−205): 5′-[…]-3′ (SEQ ID NO.: 9); reverse primer (+14˜+35): 5′-[…]-3′(SEQ ID NO.: 10). For the amplification of bisulfite-treated genomic DNA (gDNA), the following PCR conditions were used: 1×: 95° C. for 10 min; 40×: 95° C. for 30 s, 58° C. for 40 s, 72° C. for 1 min; 1×72° C. for 5 min. The PCR cocktail was: 3 μl of DNA (of at least 10 ng/μL DNA for a final concentration of […]) in a 25 μl total volume using 0.5 pmol of each primer, 200 μM dNTPs, 0.2 U Hot Start Taq DNA polymerase, 1.5 mM MgCl2 and the buffer supplied with the enzyme. The amplified promoter region were gel-purified and subjected for fluorescent Sanger sequencing. The relative quantification of the methylated allele (C) versus unmethylated allele (T) was assessed by the QSVAnalyser software. […]

[16] = test system: xenograft models of breast, lung, pancreatic, and colon cancer; conditions: in vivo; cited from earlier work
[17] = test system: pancreatic tumor-initiating cells; conditions: cited from earlier work
[18] = 72 h, imatinib 1 μM, ponatinib 0.1 μM

Molecule: COc1ccc(C2(CNC(=O)c3ccc(NC(=O)c4ccco4)cc3)CCOCC2)cc1 [JW55, N-(4-(((4-(4-methoxyphenyl)tetrahydro-2H-pyran-4-yl)methyl)carbamoyl)phenyl)furan-2-carboxamide]
canonical WNT signaling ([1]; cells with mutations in APC locus or an allele of β-catenin): inhibited canonical WNT signaling | AXIN2 and β-catenin levels [1]: stabilization of AXIN2, a member of the β-catenin destruction complex, followed by increased degradation of β-catenin | tamoxifen-induced polyposis formation [2]: reduced | XWNT8-induced axis duplication [3]: reduced XWNT8-induced axis duplication

Molecule: O=c1nc(-c2ccc(C(F)(F)F)cc2)[nH]c2c1CSCC2 [XAV939]
WNT-stimulated accumulation of β-catenin [4]: blocks WNT-stimulated accumulation of β-catenin | growth of DLD-1 cancer cells [5]: inhibits growth

growth and colony formation of healthy donor CD34+ cells [8]: only marginally affected | concentration at 2 weeks [9]: ~1000 nM
Molecule: Cc1ccc(NC(=O)c2ccc(CN3CCN(C)CC3)cc2)cc1Nc1nccc(-c2cccnc2)n1 [imatinib]
CD27 expression [6]: remained unchanged | CD70 expression on CD34+ CML stem/progenitor cells [6]: specifically increased CD70 expression on CD34+ CML stem/progenitor cells | DNMT1 and miR-29a, miR-29b, miR-29c expression in CD34+ CML stem/progenitor cells [6]: decreased the expression of DNMT1 and miR-29a, miR-29b, and miR-29c | SP1 expression in CD34+ CML stem/progenitor cells [6]: up-regulation of SP1 | Fa (fraction affected), imatinib ([7]; imatinib 0.02 μM): 0.001 | Fa (fraction affected), imatinib ([7]; imatinib 0.04 μM): 0.040 | Fa (fraction affected), imatinib ([7]; imatinib 0.08 μM): 0.149 | Fa (fraction affected), imatinib ([7]; imatinib 0.16 μM): 0.201 | Fa (fraction affected), imatinib ([7]; imatinib 0.32 μM): 0.243 | Fa (fraction affected), imatinib ([7]; imatinib 0.64 μM): 0.351 | Fa (fraction affected), imatinib ([7]; imatinib 1.28 μM): 0.432 | Fa (fraction affected), imatinib ([7]; imatinib 2.55 μM): 0.527 | Fa (fraction affected), imatinib ([7]; imatinib 5.10 μM): 0.689 | Fa (fraction affected), imatinib ([7]; imatinib 10.20 μM): 0.791 | CD70 protein expression [10]: increased CD70 protein expression | Dnmt 1 mRNA expression [10]: down-regulated | Dnmt3a mRNA expression [10]: down-regulated | SP1 mRNA expression [10]: increased | cell proliferation (BrdU) [11]: reduced cell proliferation | cell viability / cell death [11]: induced cell death | growth (cell numbers) [11]: inhibited growth and proliferation | miR-29a, miR-29b, miR-29c expression [12]: did not affect miR-29s | frequencies and absolute numbers of CD45+CD33+ leukemia cells and CD34+ CML stem/progenitor cells in BM ([13]; cells of patients 3, 4 and 5, 2 weeks of treatment): reduced cell frequencies and absolute numbers | eradication of CD34+ CML stem/progenitor cells in BM (NSG mice eradicated of treated) ([13]; patient 4 cells, 2 weeks of treatment): neither imatinib nor anti-CD70 mAb treatment alone eliminated all the CD34+ CML cells | CD45+CD33+ CML myeloid cell frequencies and absolute numbers in BM ([13]; patient 4 cells, imatinib 50 mg/kg daily p.o., anti-CD70 mAb 10 mg/kg i.p. every 3rd day, 2 weeks): significantly reduced

Molecule: [Cl-].[Li+] [lithium chloride]
TKI-mediated changes in CD70, SP1, DNMT1 mRNA expression ([14]; lithium chloride 10 μM with ponatinib 0.1 μM, 24 h): restored TKI-mediated changes in gene expression

Molecule: Cc1cn(-c2cc(NC(=O)c3ccc(C)c(Nc4nccc(-c5cccnc5)n4)c3)cc(C(F)(F)F)c2)cn1 [nilotinib]
miR-29a, miR-29b, miR-29c expression [12]: did not affect miR-29s

Molecule: Cc1ccc(C(=O)Nc2ccc(CN3CCN(C)CC3)c(C(F)(F)F)c2)cc1C#Cc1cnc2cccnn12 [ponatinib]
CD70 mRNA expression [14, 18]: induced | Dnmt 1 mRNA expression [14, 18]: down-regulated Dnmt1 mRNA | SP1 mRNA expression [14, 18]: up-regulated SP1 | CD70 protein expression (FACS) ([14]; 72 h, therapeutic concentration (imatinib 1 μM, ponatinib 0.1 μM)): induced CD70 protein expression | CD70 protein expression (MFI) early after treatment ([14]; ponatinib 0.1 μM, 16 h): already up-regulated after 16 hours | cell death (Annexin-V/7-AAD FACS) ([14]; ponatinib 0.1 μM, 16 h): did not induce substantial cell death | CD70 expression in SP1 knockdown (shSP1) KBM5r cells ([14]; ponatinib 0.1 μM, 72 h, vs scrambled control RNA cells): did not up-regulate CD70 | CD70 promoter DNA methylation [15]: significantly reduced CD70 promoter DNA methylation | miR-29a, miR-29b, miR-29c expression [12]: down-regulation of all three miR-29s

B1: OMP-18R5: monoclonal antibody that targets the Frizzled receptors to block association with WNT ligands (antibody, chains of the INN, looked up, V domains shown)
VH: EVQLVESGGGLVQPGGSLRLSCAASGFTFSHYTLSWVRQAPGKGLEWVSVISGDGSYTYYADSVKGRFTISSDNSKNTLYLQMNSLRAEDTAVYYCARNFIKYVFANWGQGTLVTVSS
VL: DIELTQPPSVSVAPGQTARISCSGDNIGSFYVHWYQQKPGQAPVLVIYDKSNRPSGIPERFSGSNSGNTATLTISGTQAEDEADYYCQSYANTLSLVFGGGTKLTVL
interaction with standard-of-care treatment [16]: synergized with standard-of-care treatment | tumor growth [16]: significant inhibition of tumor growth | capabilities of pancreatic tumor-initiating cells [17]: potently block the capabilities of pancreatic tumor-initiating cells

B2: R-Spondin 1: specific Wnt activator (protein, UniProt Q2MKA7 21-263, looked up)
R-spondin-1: SRGIKGKRQRRISAEGSQACAKGCELCSEVNGCLKCSPKLFILLERNDIRQVGVCLPSCPPGYFDARNPDMNKCIKCKIEHCEACFSHNFCTKCKEGLYLHKGRCYPACPEGSSAANGTMECSSPAQCEMSEWSPWGPCSKKQQLCGFRRGSEERTRRVLHAPVGDHAACSDTKETRRCTVRRVPCPEGQKRRKGGQGRRENANRNLARKESKEAGAGSRRRKGQQQQQQQGTVGPLTSAGPA
TKI-mediated changes in CD70, SP1, DNMT1 mRNA expression ([14]; R-Spondin 1 10 ng/ml with ponatinib 0.1 μM, 72 h): restored TKI-mediated changes in gene expression
